Reference: the supplement of paper PMC7394473

Key:
Conditions in all cases: 72 h
U2OS [1] = test: normalized growth rate inhibition value (GR) relative to untreated cells (GR value (dimensionless, 1 = untreated growth)); higher = less growth inhibition
Experimental: (§1)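 U2OS::Nuc-mKate2 cells seeded in 96-well plates and treated with eight- to ten-point half-log or log dilutions of drug in the presence of 50 nM SYTOX Green. Live (mKate2+) and dead (SYTOX+) cells were counted by IncuCyte STACK live-cell microscopy at 72 h; biological triplicates. GR is the normalised growth-rate inhibition value (Hafner 2016; 1 = untreated growth, <0 = population shrinking). FV is live/(live+dead) cells, not normalised.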

U2OS [2] = test: fractional viability (live cells / total cells); higher = less cell death
Experimental: as §1

U2OS [3] = test: drug GRADE (percent of response due to cell death) (% (0-100)); higher = more death-driven response
Experimental: (§2)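 U2OS cells treated with full dose titrations of drug; live and dead cells counted by STACK microscopy (mKate2 nuclei, SYTOX Green) at 72 h, biological triplicates. GR and FV dose responses were fitted with 4-parameter logistic models (GR lower bound -1). GRADE (0-100) is the rescaled angle of a linear fit of FV versus GR at doses with GR >= 0, giving the percentage of the response due to cell death.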

U2OS [4] = test: GRmin (fitted minimal GR value at highest effect) (GR value (dimensionless)); higher = less efficacious
Experimental: as §2

U2OS [5] = test: GR50 (concentration giving GR = 0.5)
Experimental: as §2

Row | Compound | normalized growth rate inhibition value (U2OS [1]; 0.00100578 µM) | normalized growth rate inhibition value (U2OS [1]; 0.00317827 µM) | normalized growth rate inhibition value (U2OS [1]; 0.0100433 µM) | normalized growth rate inhibition value (U2OS [1]; 0.0317369 µM) | normalized growth rate inhibition value (U2OS [1]; 0.100289 µM) | normalized growth rate inhibition value (U2OS [1]; 0.316912 µM) | normalized growth rate inhibition value (U2OS [1]; 1.00144 µM) | normalized growth rate inhibition value (U2OS [1]; 3.16456 µM) | normalized growth rate inhibition value (U2OS [1]; 10 µM) | fractional viability (U2OS [2]; 0.00100578 µM) | fractional viability (U2OS [2]; 0.00317827 µM) | fractional viability (U2OS [2]; 0.0100433 µM) | fractional viability (U2OS [2]; 0.0317369 µM) | fractional viability (U2OS [2]; 0.100289 µM) | fractional viability (U2OS [2]; 0.316912 µM) | fractional viability (U2OS [2]; 1.00144 µM) | fractional viability (U2OS [2]; 3.16456 µM) | fractional viability (U2OS [2]; 10 µM) | drug GRADE (U2OS [3]) | GRmin (U2OS [4]) | GR50 (U2OS [5]) [µM] | normalized growth rate inhibition value (U2OS [1]; 0.01 µM) | normalized growth rate inhibition value (U2OS [1]; 0.0316 µM) | normalized growth rate inhibition value (U2OS [1]; 0.1 µM) | normalized growth rate inhibition value (U2OS [1]; 0.316 µM) | normalized growth rate inhibition value (U2OS [1]; 1 µM) | normalized growth rate inhibition value (U2OS [1]; 3.16 µM) | normalized growth rate inhibition value (U2OS [1]; 31.6 µM) | fractional viability (U2OS [2]; 0.01 µM) | fractional viability (U2OS [2]; 0.0316 µM) | fractional viability (U2OS [2]; 0.1 µM) | fractional viability (U2OS [2]; 0.316 µM) | fractional viability (U2OS [2]; 1 µM) | fractional viability (U2OS [2]; 3.16 µM) | fractional viability (U2OS [2]; 31.6 µM)
1 | O=C(c1cc(Cc2n[nH]c(=O)c3ccccc23)ccc1F)N1CCN(C(=O)C2CC2)CC1 [Olaparib] | 1.03 | 0.94 | 1.03 | 1.02 | 0.964 | 0.956 | 0.922 | 0.85 | 0.511 | 0.992 | 0.988 | 0.989 | 0.992 | 0.99 | 0.989 | 0.987 | 0.982 | 0.96 | 6.58 |  |  |  |  |  |  |  |  |  |  |  |  |  |  |  | 
2 | CN1CCN(CCOc2cc(OC3CCOCC3)c3c(Nc4c(Cl)ccc5c4OCO5)ncnc3c2)CC1 [Saracatinib] | 1.02 | 1.04 | 1 | 0.977 | 0.978 | 0.823 | 0.608 | 0.528 | 0.205 | 0.989 | 0.989 | 0.987 | 0.986 | 0.98 | 0.965 | 0.929 | 0.915 | 0.833 | 28.7 | -0.134 | 2.59 |  |  |  |  |  |  |  |  |  |  |  |  |  | 
3 | Cc1c(N)nc([C@H](CC(N)=O)NC[C@H](N)C(N)=O)nc1C(=O)N[C@H](C(=O)N[C@H](C)[C@@H](O)[C@H](C)C(=O)N[C@H](C(=O)NCCc1nc(-c2nc(C(=O)NCCC[S+](C)C)cs2)cs1)[C@@H](C)O)[C@@H](OC1OC(CO)C(O)C(O)C1OC1OC(CO)C(O)C(OC(N)=O)C1O)c1cnc[nH]1 (stereo partly specified) [Bleomycin] | 1.12 | 0.986 | 1.11 | 1.03 | 0.88 | 0.888 | 0.552 | 0.195 | 0.0892 | 0.989 | 0.989 | 0.99 | 0.991 | 0.987 | 0.982 | 0.972 | 0.968 | 0.947 | 6.06 | 0.0459 | 1.15 |  |  |  |  |  |  |  |  |  |  |  |  |  | 
4 | O=C1NC(=O)[C@@H](c2cn3c4c(cccc24)CCC3)[C@@H]1c1c[nH]c2ccccc12 [Tivantinib] | 0.95 | 1.03 | 0.977 | 0.86 | 0.598 | 0.299 | 0.049 | -0.107 | -0.3 | 0.99 | 0.991 | 0.986 | 0.988 | 0.975 | 0.844 | 0.613 | 0.683 | 0.481 | 42.8 | -0.31 | 0.169 |  |  |  |  |  |  |  |  |  |  |  |  |  | 
5 | CC1CCc2cc(F)cc3c(=O)c(C(=O)O)cn1c23 (stereo unspecified) [Flumequine] |  |  |  |  |  |  |  |  | 1.1 |  |  |  |  |  |  |  |  | 0.977 |  | 1 |  | 0.959 | 1.02 | 0.966 | 0.928 | 0.907 | 0.962 | 0.969 | 0.98 | 0.971 | 0.981 | 0.977 | 0.971 | 0.974 | 0.976
6 | C=CCc1ccc(O)c(-c2ccc(O)c(CC=C)c2)c1 [Honokiol] |  |  |  |  |  |  |  |  | 0.95 |  |  |  |  |  |  |  |  | 0.981 |  |  |  | 1.04 | 1.07 | 0.96 | 1.03 | 0.897 | 0.981 | 0.774 | 0.978 | 0.974 | 0.978 | 0.983 | 0.978 | 0.979 | 0.969
7 | O=C(O)CCCc1ccc(N(CCCl)CCCl)cc1 [Chlorambucil] |  |  |  |  |  |  |  |  | 0.925 |  |  |  |  |  |  |  |  | 0.976 |  | 0.695 |  | 1.08 | 0.879 | 1.13 | 0.991 | 0.93 | 0.936 | 0.838 | 0.983 | 0.974 | 0.978 | 0.978 | 0.979 | 0.976 | 0.967
8 | Cc1cc2c(C(=O)NC[C@H](C)c3ccccc3)c(O)c(O)cc2c(O)c1-c1c(C)cc2c(C(=O)NC[C@H](C)c3ccccc3)c(O)c(O)cc2c1O [Sabutoclax] |  |  |  |  |  |  |  |  | 0.175 |  |  |  |  |  |  |  |  | 0.878 | 27.4 | -0.234 | 3.32 | 0.995 | 0.971 | 1.12 | 0.844 | 0.77 | 0.533 | -0.0541 | 0.979 | 0.983 | 0.982 | 0.975 | 0.982 | 0.936 | 0.681
9 | COc1cc2c(Oc3ccc4[nH]c(C)cc4c3F)ncnc2cc1OCCCN1CCCC1 [Cediranib] | 0.951 | 1.04 | 1.11 | 1.04 | 0.987 | 1.07 | 0.861 | 0.837 | 0.308 | 0.987 | 0.986 | 0.986 | 0.988 | 0.986 | 0.987 | 0.974 | 0.966 | 0.686 | 55.1 |  | 7.19 |  |  |  |  |  |  |  |  |  |  |  |  |  | 
